According to US12435089B2, “3-oxadiazolyl substituted pyrazolo[1,5,a]pyrimidines for ROS1, NTRK, and ALK mediated diseases” (TYK MEDICINES, INC., priority 2019, dated 2025):
Read-outs that look alike come from different tables or passages of the source.

Legend:
TRKB = TRKB (Homo sapiens (Human), UniProt Q16620); assay: Radio-tagged HotSpot kinase assay, TRKB; type: biochemical; settings: 33P-ATP, 120 min, room temperature
Method: (§2) Inhibition of protein kinase activity by compounds was carried out on the Radio-tagged HotSpot kinase experimental platform of Reaction Biology Corporation. Fresh reaction solution (20 mM HEPESpH 7.5, 10 mM MgCl2, 1 mM EGTA, 0.02% Brij35, 0.02 mg/ml BSA, 0.1 mM Na3VO4, 2 mM DTT, 1% DMSO) containing corresponding substrates was prepared, cofactor and kinase to be tested were added into the above solution and mixed gently. Echo550 pipetting system was used to add the test compound DMSO solution to each well (the blank control group was added with the corresponding volume of DMSO), then 33P-ATP (with a final specific activity of 0.01 μCi/μL) was added to start the reaction. The reaction solution was incubated at room temperature for 120 minutes.

ROS1 (G2032R) = ROS1 (G2032R) (Homo sapiens (Human), UniProt P08922, G2032R); assay: Radio-tagged HotSpot kinase assay, ROS1 (G2032R)
Method: as §2

TRKC = TRKC (Homo sapiens (Human), UniProt Q16288); assay: Radio-tagged HotSpot kinase assay, TRKC; type: biochemical; settings: 33P-ATP, 120 min, room temperature
Method: as §2

TRKA (G595R) = TRKA (G595R) (Homo sapiens (Human), UniProt P04629, G595R); assay: Radio-tagged HotSpot kinase assay, TRKA (G595R)
Method: as §2

ALK (G1202R) = ALK (G1202R) (Homo sapiens (Human), UniProt Q9UM73, G1202R); assay: Radio-tagged HotSpot kinase assay, ALK (G1202R); type: biochemical; settings: 33P-ATP, 120 min, room temperature
Method: as §2

TRKA = TRKA (Homo sapiens (Human), UniProt P04629); assay: Radio-tagged HotSpot kinase assay, TRKA;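 also: kinase activity measured through incorporation of 33P from labelled ATP into substrate, 120 min at room temperature, relative to a DMSO-only blank control, reported as inhibition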
Method: as §2

TRKA (G677C) = TRKA (G677C) (Homo sapiens, UniProt P04629, G667C); assay: Radio-tagged HotSpot kinase assay, TRKA (G677C); type: biochemical; settings: 33P-ATP, 120 min, room temperature
Method: as §2

ROS1 = ROS1 (Homo sapiens (Human), UniProt P08922); assay: Radio-tagged HotSpot kinase assay, ROS1
Method: as §2

ALK = ALK (Homo sapiens (Human), UniProt Q9UM73); assay: Radio-tagged HotSpot kinase assay, ALK; type: biochemical; settings: 33P-ATP, 120 min, room temperature
Method: as §2

Ba/F3-LMNA-NTRK1-G595R = assay: Inhibition of cell proliferation (CellTiter-Glo), Ba/F3-LMNA-NTRK1-G595R; type: cell-based; settings: 72 hours
Method: (§1) The experiment of inhibiting cell proliferation by compounds was carried out in Hefei Zhongkeprecedo Biomedical Technology Co., Ltd. The Ba/F3 engineered cell line stably transfected with different kinase genes was recovered with RPMI 1640 medium (Biological Industries, Israel)+10% fetal bovine serum (Biological Industries, Israel)+1% double antibody (Penicillin Streptomycin solution, Coring, USA) and cultivated two generations. The logarithmic growth phase cell suspension was taken, and 2000 cells/well were inoculated on 96-well white cell culture plate (Corning 3917, NY, USA) with a volume of 95 μL per well. 5 μL of 20×DMSO solution of the compound to be tested was added into the culture plate containing 95 μL of cell suspension. The blank control group was added with corresponding volume of DMSO, mixed well, and incubated in a 5% CO2 incubator at 37° C. for 72 hours. CellTiter-Glo was used to detect cell viability.

Ba/F3-TEL-ALK-G1202R = assay: Inhibition of cell proliferation (CellTiter-Glo), Ba/F3-TEL-ALK-G1202R; type: cell-based; settings: 72 hours
Method: as §1

Ba/F3-CD74-ROS1-G2032R = assay: Inhibition of cell proliferation (CellTiter-Glo), Ba/F3-CD74-ROS1-G2032R; type: cell-based; settings: 72 hours;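 also: Ba/F3 cell line expressing the CD74-ROS1 fusion with G2032R mutation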
Method: as §1

Ba/F3-CD74-ROS1 = assay: Inhibition of cell proliferation (CellTiter-Glo), Ba/F3-CD74-ROS1; type: cell-based; settings: 72 hours
Method: as §1

Ba/F3-LMNA-NTRK1 = assay: Inhibition of cell proliferation (CellTiter-Glo), Ba/F3-LMNA-NTRK1; type: cell-based; settings: 72 hours
Method: as §1

[1] = read-out: ROS1 (G2032R) (IC50/nM), 33P-ATP, 120 min, room temperature
[2] = read-out: ROS1 (IC50/nM), 33P-ATP, 120 min, room temperature
[3] = read-out: TRKA (IC50/nM), 33P-ATP, 120 min, room temperature

ROS1, sequence (P08922 28-2347): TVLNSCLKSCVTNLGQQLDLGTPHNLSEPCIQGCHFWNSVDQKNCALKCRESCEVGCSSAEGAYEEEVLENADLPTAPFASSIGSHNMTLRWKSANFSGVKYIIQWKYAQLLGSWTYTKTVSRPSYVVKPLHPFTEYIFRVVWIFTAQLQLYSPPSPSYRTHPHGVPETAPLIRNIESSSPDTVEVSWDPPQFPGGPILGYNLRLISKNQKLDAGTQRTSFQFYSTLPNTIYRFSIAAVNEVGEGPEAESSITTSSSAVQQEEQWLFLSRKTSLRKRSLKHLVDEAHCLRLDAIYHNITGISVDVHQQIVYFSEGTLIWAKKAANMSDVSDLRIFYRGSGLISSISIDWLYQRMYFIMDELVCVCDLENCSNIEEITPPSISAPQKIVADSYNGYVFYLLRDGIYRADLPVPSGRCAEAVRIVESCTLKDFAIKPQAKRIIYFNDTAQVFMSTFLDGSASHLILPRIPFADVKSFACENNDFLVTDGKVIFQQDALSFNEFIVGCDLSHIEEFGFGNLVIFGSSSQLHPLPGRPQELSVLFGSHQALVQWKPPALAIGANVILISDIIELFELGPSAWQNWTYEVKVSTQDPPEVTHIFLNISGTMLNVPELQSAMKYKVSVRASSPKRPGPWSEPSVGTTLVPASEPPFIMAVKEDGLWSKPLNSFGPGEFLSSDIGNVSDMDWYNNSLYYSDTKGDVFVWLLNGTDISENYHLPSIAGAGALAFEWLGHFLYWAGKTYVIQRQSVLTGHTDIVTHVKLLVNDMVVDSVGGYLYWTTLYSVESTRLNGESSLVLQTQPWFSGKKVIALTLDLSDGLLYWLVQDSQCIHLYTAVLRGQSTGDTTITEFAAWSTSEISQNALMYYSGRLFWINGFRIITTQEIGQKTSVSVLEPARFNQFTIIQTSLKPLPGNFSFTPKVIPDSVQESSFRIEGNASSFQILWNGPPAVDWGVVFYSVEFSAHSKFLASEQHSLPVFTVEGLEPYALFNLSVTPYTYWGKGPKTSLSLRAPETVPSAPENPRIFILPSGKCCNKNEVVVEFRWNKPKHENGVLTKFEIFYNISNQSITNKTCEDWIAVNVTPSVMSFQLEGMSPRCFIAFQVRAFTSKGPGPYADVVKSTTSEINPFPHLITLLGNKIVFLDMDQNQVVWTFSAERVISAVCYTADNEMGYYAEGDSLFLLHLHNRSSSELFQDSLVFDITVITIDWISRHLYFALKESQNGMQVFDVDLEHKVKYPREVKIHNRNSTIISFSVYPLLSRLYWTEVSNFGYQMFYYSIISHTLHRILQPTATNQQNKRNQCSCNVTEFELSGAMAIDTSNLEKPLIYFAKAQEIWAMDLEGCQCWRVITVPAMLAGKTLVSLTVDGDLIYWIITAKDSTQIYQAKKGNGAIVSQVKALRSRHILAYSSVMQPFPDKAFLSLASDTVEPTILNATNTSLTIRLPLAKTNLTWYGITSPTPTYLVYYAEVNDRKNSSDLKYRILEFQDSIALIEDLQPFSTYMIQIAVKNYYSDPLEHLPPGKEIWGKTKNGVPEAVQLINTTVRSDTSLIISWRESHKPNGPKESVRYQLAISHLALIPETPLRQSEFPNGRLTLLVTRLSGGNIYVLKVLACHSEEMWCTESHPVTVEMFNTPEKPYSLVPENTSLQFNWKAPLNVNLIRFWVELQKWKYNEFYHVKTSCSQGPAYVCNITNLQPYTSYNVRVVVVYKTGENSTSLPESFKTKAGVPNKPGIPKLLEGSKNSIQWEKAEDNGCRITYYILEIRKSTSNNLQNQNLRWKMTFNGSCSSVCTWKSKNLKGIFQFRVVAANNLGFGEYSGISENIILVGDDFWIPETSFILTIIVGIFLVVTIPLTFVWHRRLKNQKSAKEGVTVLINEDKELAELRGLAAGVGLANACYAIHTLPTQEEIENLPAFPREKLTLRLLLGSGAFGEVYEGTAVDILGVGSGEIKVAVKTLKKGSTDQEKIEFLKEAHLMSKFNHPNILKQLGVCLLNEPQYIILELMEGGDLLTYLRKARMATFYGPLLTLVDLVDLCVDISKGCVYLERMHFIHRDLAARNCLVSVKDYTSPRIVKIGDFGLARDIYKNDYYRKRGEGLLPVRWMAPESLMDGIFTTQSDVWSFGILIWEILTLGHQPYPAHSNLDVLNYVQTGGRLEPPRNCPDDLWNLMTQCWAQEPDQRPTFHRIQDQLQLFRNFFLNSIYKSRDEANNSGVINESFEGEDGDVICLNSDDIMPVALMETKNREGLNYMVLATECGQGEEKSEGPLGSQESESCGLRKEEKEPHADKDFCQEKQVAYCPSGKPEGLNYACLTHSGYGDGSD
TRKB, sequence (Q16620 32-822): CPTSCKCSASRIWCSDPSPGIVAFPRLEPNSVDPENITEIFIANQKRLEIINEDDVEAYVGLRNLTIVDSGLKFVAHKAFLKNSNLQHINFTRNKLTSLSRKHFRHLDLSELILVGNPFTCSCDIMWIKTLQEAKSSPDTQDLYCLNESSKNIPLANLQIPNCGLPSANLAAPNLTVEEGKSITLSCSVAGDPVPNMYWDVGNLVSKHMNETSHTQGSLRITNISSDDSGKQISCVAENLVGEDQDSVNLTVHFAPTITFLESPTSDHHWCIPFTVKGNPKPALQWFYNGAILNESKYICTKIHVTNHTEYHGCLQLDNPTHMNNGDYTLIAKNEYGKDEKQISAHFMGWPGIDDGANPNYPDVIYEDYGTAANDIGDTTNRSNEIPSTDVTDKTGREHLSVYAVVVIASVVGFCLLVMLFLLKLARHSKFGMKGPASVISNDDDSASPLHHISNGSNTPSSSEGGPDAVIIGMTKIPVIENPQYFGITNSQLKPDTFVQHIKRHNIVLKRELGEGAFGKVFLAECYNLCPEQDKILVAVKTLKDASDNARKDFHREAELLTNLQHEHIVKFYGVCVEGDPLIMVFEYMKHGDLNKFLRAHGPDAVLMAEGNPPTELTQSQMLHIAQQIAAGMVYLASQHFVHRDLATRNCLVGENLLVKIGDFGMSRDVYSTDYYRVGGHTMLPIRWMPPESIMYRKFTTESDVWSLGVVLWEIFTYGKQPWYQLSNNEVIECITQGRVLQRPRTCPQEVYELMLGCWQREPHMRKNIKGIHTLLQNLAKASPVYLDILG
TRKC, sequence (Q16288 32-839): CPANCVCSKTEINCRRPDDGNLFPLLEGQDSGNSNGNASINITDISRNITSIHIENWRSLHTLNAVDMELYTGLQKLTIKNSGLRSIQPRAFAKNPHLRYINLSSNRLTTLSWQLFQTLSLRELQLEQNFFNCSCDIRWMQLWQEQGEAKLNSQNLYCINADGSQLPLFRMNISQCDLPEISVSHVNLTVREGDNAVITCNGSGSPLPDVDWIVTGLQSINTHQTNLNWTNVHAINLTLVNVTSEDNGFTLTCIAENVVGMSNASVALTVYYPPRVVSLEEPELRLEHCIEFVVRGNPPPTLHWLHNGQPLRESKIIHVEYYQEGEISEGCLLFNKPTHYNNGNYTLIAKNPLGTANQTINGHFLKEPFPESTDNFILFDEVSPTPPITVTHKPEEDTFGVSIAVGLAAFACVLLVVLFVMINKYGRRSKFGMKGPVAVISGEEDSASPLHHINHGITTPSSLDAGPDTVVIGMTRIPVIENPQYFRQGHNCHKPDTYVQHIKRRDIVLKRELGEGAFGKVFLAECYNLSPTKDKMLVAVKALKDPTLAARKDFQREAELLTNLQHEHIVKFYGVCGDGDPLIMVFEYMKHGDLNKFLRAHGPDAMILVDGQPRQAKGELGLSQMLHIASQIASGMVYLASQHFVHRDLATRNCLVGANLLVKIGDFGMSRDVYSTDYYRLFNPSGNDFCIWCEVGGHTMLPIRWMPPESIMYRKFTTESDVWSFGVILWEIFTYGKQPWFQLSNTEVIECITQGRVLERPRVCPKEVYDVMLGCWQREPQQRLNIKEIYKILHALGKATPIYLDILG
ROS1 (G2032R), sequence (P08922 28-2347 G2032R): as the sequence (P08922 28-2347) above, with G2005R counted along it
TRKA, sequence (P04629 33-796): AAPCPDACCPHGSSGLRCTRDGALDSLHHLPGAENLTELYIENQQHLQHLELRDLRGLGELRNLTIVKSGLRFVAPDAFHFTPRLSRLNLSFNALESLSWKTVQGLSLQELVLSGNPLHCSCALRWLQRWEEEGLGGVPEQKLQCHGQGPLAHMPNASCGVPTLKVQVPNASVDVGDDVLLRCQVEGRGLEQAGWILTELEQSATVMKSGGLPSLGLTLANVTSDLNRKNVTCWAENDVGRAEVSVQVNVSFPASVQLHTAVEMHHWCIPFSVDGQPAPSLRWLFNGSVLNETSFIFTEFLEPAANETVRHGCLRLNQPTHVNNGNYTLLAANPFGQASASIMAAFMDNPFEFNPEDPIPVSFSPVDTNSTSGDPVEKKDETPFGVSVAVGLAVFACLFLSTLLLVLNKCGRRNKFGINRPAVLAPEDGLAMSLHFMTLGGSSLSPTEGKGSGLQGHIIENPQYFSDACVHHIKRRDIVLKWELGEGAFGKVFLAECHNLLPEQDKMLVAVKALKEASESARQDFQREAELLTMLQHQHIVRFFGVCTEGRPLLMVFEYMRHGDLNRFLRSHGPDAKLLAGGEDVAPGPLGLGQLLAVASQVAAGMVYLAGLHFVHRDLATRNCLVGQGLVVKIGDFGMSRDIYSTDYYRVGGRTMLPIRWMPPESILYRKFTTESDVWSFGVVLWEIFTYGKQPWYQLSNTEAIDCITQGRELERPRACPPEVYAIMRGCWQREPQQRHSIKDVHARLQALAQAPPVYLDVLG
TRKA (G677C), sequence (P04629 33-796 G667C limits assumed): as the sequence (P04629 33-796) above, with G635C counted along it
TRKA (G595R), sequence (P04629 33-796 G595R): as the sequence (P04629 33-796) above, with G563R counted along it

| SMILES | IC50 (TRKB) [nM] | IC50 (ROS1 (G2032R)) [nM] | IC50 (TRKC) [nM] | IC50 (TRKA (G595R)) [nM] | IC50 (ALK (G1202R)) [nM] | IC50 (TRKA) [nM] | IC50 (TRKA (G677C)) [nM] | IC50 (ROS1) [nM] | IC50 (ROS1 (G2032R); [1]) [nM] | IC50 (ROS1; [2]) [nM] | IC50 (ALK) [nM] | IC50 (Ba/F3-LMNA-NTRK1-G595R) [nM] | IC50 (Ba/F3-TEL-ALK-G1202R) [nM] | IC50 (TRKA; [3]) [nM] | IC50 (Ba/F3-CD74-ROS1-G2032R) [nM] | IC50 (Ba/F3-CD74-ROS1) [nM] | IC50 (Ba/F3-LMNA-NTRK1) [nM] |
| --- | --- | --- | --- | --- | --- | --- | --- | --- | --- | --- | --- | --- | --- | --- | --- | --- | --- |
| C[C@@H](Nc1ccn2ncc(C3=NOC(C)(C)N3)c2n1)c1cc(F)ccc1Br [Example 23] | 0.5 to 5 | 0.5 to 5 | 0.5 to 5 | 5 to 50 | 5 to 50 | 0.5 to 5 | 5 to 50 | 0.5 to 5 |  |  |  |  |  |  |  |  |  |
| CCOc1ccc(F)cc1[C@@H](C)Nc1ccn2ncc(C3=NOC(C)(C)N3)c2n1 [Example 50] | < 0.5 |  | < 0.5 | 0.5 to 5 | 0.5 to 5 | 0.5 to 5 | 0.5 to 5 |  | < 0.5 | < 0.5 | 5 to 50 |  |  |  |  |  |  |
| [2H]C([2H])([2H])Oc1ccc(F)cc1[C@@H](C)Nc1ccn2ncc(C3=NOC(C)(C)N3)c2n1 [Example 4] |  |  |  | 5 to 50 | 5 to 50 |  | 5 to 50 |  |  |  | 0.5 to 5 |  |  |  |  |  |  |
| COc1ccc(F)cc1[C@@H](C)Nc1ccn2ncc(C3=NOC(C)(C)N3)c2n1 [Example 10] | < 0.5 |  | < 0.5 | 0.5 to 5 | 0.5 to 5 |  | 0.5 to 5 |  | < 0.5 | < 0.5 | 5 to 50 | 2.2 | 87.5 | < 0.5 | 7.9 | 2.8 | 1.3 |
| C[C@@H](Nc1ccn2ncc(C3=NOC(C)(C)N3)c2n1)c1cc(F)ccc1F [Example 5] | < 0.5 |  | < 0.5 | 5 to 50 | 5 to 50 | 0.5 to 5 | 5 to 50 |  | < 0.5 | < 0.5 | 0.5 to 5 |  |  |  |  |  |  |
| C[C@@H](Nc1ccn2ncc(C3=NOC(C)(C)N3)c2n1)c1c(Cl)ccc(F)c1Cl [Example 14] | 0.5 to 5 | 0.5 to 5 | 0.5 to 5 | 5 to 50 | 5 to 50 | 0.5 to 5 | 5 to 50 | 0.5 to 5 |  |  |  |  |  |  |  |  |  |
| CC(C)Oc1ccc(F)cc1[C@@H](C)Nc1ccn2ncc(C3=NOC(C)(C)N3)c2n1 [Example 51] | < 0.5 |  | < 0.5 | 5 to 50 | 0.5 to 5 | 0.5 to 5 | 5 to 50 |  | < 0.5 | < 0.5 | 5 to 50 |  |  |  |  |  |  |
| COc1ncc(F)cc1[C@@H](C)Nc1ccn2ncc(C3=NOC(C)(C)N3)c2n1 [Example 28] | < 0.5 |  | < 0.5 | 0.5 to 5 | 0.5 to 5 |  | 5 to 50 |  | < 0.5 | < 0.5 | 5 to 50 |  |  | < 0.5 |  |  |  |
| CCc1ccc(F)cc1[C@@H](C)Nc1ccn2ncc(C3=NOC(C)(C)N3)c2n1 [Example 52] | 0.5 to 5 | 0.5 to 5 | < 0.5 | 5 to 50 | 5 to 50 | 0.5 to 5 | 50 to 500 |  |  | < 0.5 | 50 to 500 |  |  |  |  |  |  |
